Read-outs that look alike come from different tables or passages of the source.
How the values were obtained:
NAMPT = biological target: T1, NAMPT (Homo sapiens, UniProt P43490); assay: Biochemical inhibition assay: NAMPT enzymatic reaction, NMN quantified by mass spectrometry; settings: read-out: Biochem IC50
T1 construct: His tag; host or cells: E. coli
How it was run: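 Inhibition of E. coli-expressed His-tagged human NAMPT, measured as NMN formation by mass spectrometry after a 30 min room-temperature reaction containing 1 μM NAM, 100 μM PRPP and 2.5 mM ATP.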

A2780 cells = assay: In-vitro cell proliferation assay (SRB), A2780 cells; format: cell-based; settings: Homo sapiens, A2780, 72 h, A2780 cells, 72 hours, SRB; read-out: A2780 IC50
How it was run: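 Growth inhibition was derived from background-corrected SRB absorbance (570 nm), measured on cells fixed in 6% TCA after three days of compound treatment under 5% CO2 at 37° C.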

T1 sequence (P43490 whole entry): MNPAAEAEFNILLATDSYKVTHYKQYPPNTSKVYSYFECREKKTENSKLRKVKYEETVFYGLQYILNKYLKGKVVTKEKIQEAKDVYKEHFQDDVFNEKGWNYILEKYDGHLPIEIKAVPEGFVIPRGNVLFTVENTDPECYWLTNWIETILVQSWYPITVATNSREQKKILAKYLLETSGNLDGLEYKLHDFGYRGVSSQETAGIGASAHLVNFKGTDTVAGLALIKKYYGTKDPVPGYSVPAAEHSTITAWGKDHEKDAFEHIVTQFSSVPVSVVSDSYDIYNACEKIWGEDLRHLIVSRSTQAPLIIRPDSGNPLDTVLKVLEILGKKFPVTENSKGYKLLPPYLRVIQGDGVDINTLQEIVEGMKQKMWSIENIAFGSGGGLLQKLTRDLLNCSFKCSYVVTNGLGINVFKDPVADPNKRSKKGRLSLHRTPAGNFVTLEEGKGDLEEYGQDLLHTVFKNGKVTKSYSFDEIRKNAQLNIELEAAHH

| SMILES | IC50 (NAMPT; NAMPT enzymatic reaction) [nM] | IC50 (A2780 cells) [nM] | IC50 (NAMPT; NAMPT enzymatic assay) [nM] |
| --- | --- | --- | --- |
| CCOc1cc(S(=O)(=O)c2ccc(CNC(=O)c3cc4ccncc4o3)cc2)ccc1F [N-({4-[(3-ethoxy-4-fluorobenzene)sulfonyl]phenyl}methyl)furo[2,3-c]pyridine-2-carboxamide] | 11 | 7.2 |  |
| COc1ccccc1S(=O)(=O)c1ccc(CNC(=O)c2cnc3nccn3c2)cc1 [N-({4-[(2-methoxybenzene)sulfonyl]phenyl}methyl)imidazo[1,2-a]pyrimidine-6-carboxamide] | 3.9 | 74.7 |  |
| COc1c(F)cccc1S(=O)(=O)c1ccc(CNC(=O)c2ccc3nccn3c2)cc1 [N-({4-[(3-fluoro-2-methoxybenzene)sulfonyl]phenyl}methyl)imidazo[1,2-a]pyridine-6-carboxamide] | 76.9 | 65 |  |
| COc1cc(S(=O)(=O)c2ccc(CNC(=O)c3cc4ccncc4o3)cc2)ccc1C | 4.6 | 3.1 |  |
| O=C(NCc1ccc(S(=O)(=O)c2ccc(C(F)(F)F)cn2)cc1)c1cnc2nccn2c1 [N-({4-[5-(trifluoromethyl)pyridine-2-sulfonyl]phenyl}methyl)imidazo[1,2-a]pyrimidine-6-carboxamide] |  | 70.8 | 5.9 |
| O=C(NCc1ccc(S(=O)(=O)c2cc(F)cc(Cl)c2)cc1)c1cc2ccncc2s1 | 1.4 | 0.6 |  |
| COc1cc(C(F)(F)F)ccc1S(=O)(=O)c1ccc(CNC(=O)c2ccc3nccn3c2)cc1 [N-[(4-{[2-methoxy-4-(trifluoromethyl)benzene]sulfonyl}phenyl)methyl]imidazo[1,2-a]pyridine-6-carboxamide] |  | 9.84 | 26.4 |
| O=C(NCc1ccc(S(=O)(=O)c2ccc(C(F)(F)F)cc2OCC(F)(F)F)cc1)c1ccc2nccn2c1 [N-[(4-{[2-(2,2,2-trifluoroethoxy)-4-(trifluoromethyl)benzene]sulfonyl}phenyl)methyl]imidazo[1,2-a]pyridine-6-carboxamide] |  | 1.2 | 7 |
| O=C(NCc1ccc(S(=O)(=O)c2cnc(N3CCCC3)s2)cc1)c1cc2cnccc2[nH]1 [N-({4-[2-(pyrrolidin-1-yl)-1,3-thiazole-5-sulfonyl]phenyl}methyl)-1H-pyrrolo[3,2-c]pyridine-2-carboxamide] |  | 0.5 | 6 |
| O=C(NCc1ccc(S(=O)(=O)c2ccc(C(F)(F)F)cc2)cc1)c1cnc2nccn2c1 |  | 23.5 | 6 |
| CCCCOc1ccc(Cl)cc1S(=O)(=O)c1ccc(CNC(=O)c2cc3ccncc3s2)cc1 | 7.3 | 10 |  |
| O=C(NCc1ccc(S(=O)(=O)c2ccc(Cl)cc2C(F)(F)F)cc1)c1cnc2[nH]ncc2c1 [N-[(4-{[4-chloro-2-(trifluoromethyl)benzene]sulfonyl}phenyl)methyl]-1H-pyrazolo[3,4-b]pyridine-5-carboxamide] |  | 78.3 | 147 |
| N#CC1(c2ccc(S(=O)(=O)c3ccc(CNC(=O)c4cc5cnccc5[nH]4)cc3)cc2)CCCC1 |  | 18.9 | 60.1 |
| O=C(NCc1ccc(S(=O)(=O)c2cc(Cl)ccc2OCC(F)(F)F)cc1)c1ccc2nccn2c1 |  | 0.3 | 1 |
| O=C(NCc1ccc(S(=O)(=O)c2cc(F)cc(Cl)c2)cc1)c1cnc2[nH]ncc2c1 | 13.3 | 6 |  |
| COc1ccc(S(=O)(=O)c2ccc(CNC(=O)c3ccc4nccn4c3)cc2)c(OC)n1 [N-{[4-(2,6-dimethoxypyridine-3-sulfonyl)phenyl]methyl}imidazo[1,2-a]pyridine-6-carboxamide] |  | 9.2 | 43.3 |
| CCNC(=O)c1ccc(S(=O)(=O)c2ccc(CNC(=O)c3cnc4nccn4c3)cc2)cc1 |  | 87.8 | 22.6 |
| Cn1ncc2c(S(=O)(=O)c3ccc(CNC(=O)c4cnc5nccn5c4)cc3)cccc21 [N-{[4-(1-methyl-1H-indazole-4-sulfonyl)phenyl]methyl}imidazo[1,2-a]pyrimidine-6-carboxamide] |  | 10.3 | 4.2 |
| Cc1cc(C)n(-c2cccc(S(=O)(=O)c3ccc(CNC(=O)c4cnc5[nH]ncc5c4)cc3)c2)n1 |  | 5.3 | 25.3 |
| Cn1ncc2c(S(=O)(=O)c3ccc(CNC(=O)c4cnc5[nH]ncc5c4)cc3)cccc21 [N-{[4-(1-methyl-1H-indazole-4-sulfonyl)phenyl]methyl}-1H-pyrazolo[3,4-b]pyridine-5-carboxamide] |  | 6.4 | 20.3 |
| CCCCOc1ccc(S(=O)(=O)c2ccc(CNC(=O)c3cc4cnccc4[nH]3)cc2)c(C)c1 | 80 | 62.5 |  |
| O=C(NCc1ccc(S(=O)(=O)c2ccc(Cl)c(F)c2)cc1)c1cc2ccncc2o1 | 18.5 | 6.5 |  |
